How the values were obtained:
[1] = system: clinical Escherichia coli YT1-30; experiment: Minimum inhibitory concentration (MIC), NCCLS method, 30 clinical strains; assay type: cell-based; parameters: Minimum inhibitory concentration (MIC): unit not given here
Text: (§1) Escherichia coli (E. coli) are one of the most common bacteria in the clinic. 30 strains of E. coli obtained from the clinic were named YT1-30. The minimum inhibitory concentrations (MIC) of 8 antibiotics against these 30 clinically obtained E. coli was detected according to the NCCLS method, and E. coli K12 was used as a control.

[2] = system: E. coli K12; experiment: Minimum inhibitory concentration (MIC), NCCLS method, control strain; assay type: cell-based, Escherichia coli; settings: no unit in table, MIC in μg/mL
Text: as §1

Compound	Minimum inhibitory concentration (MIC) ([1]; strain YT1)	Minimum inhibitory concentration (MIC) ([1]; strain YT2)	Minimum inhibitory concentration (MIC) ([1]; strain YT3)	Minimum inhibitory concentration (MIC) ([1]; strain YT4)	Minimum inhibitory concentration (MIC) ([1]; strain YT5)	Minimum inhibitory concentration (MIC) ([1]; strain YT6)	Minimum inhibitory concentration (MIC) ([1]; strain YT7)	Minimum inhibitory concentration (MIC) ([1]; strain YT8)	Minimum inhibitory concentration (MIC) ([1]; strain YT9)	Minimum inhibitory concentration (MIC) ([1]; strain YT10)	Minimum inhibitory concentration (MIC) ([1]; strain YT11)	Minimum inhibitory concentration (MIC) ([1]; strain YT12)	Minimum inhibitory concentration (MIC) ([1]; strain YT13)	Minimum inhibitory concentration (MIC) ([1]; strain YT14)	Minimum inhibitory concentration (MIC) ([1]; strain YT15)	Minimum inhibitory concentration (MIC) ([1]; strain YT16)	Minimum inhibitory concentration (MIC) ([1]; strain YT17)	Minimum inhibitory concentration (MIC) ([1]; strain YT18)	Minimum inhibitory concentration (MIC) ([1]; strain YT19)	Minimum inhibitory concentration (MIC) ([1]; strain YT20)	further results
CN(C)[C@@H]1C(O)=C(C(N)=O)C(=O)[C@@]2(O)C(O)=C3C(=O)c4c(O)cccc4[C@@](C)(O)[C@H]3C[C@@H]12 [Tetracycline]	6.1	24.414	97.656	390.625	390.625	97.656	97.656	97.656	97.656	97.656	97.656	6250	6250	6250	6250	6250	6250	1562.5	1562.5	1562.5	Minimum inhibitory concentration (MIC) ([1]; strain YT21): 1562.5; Minimum inhibitory concentration (MIC) ([1]; strain YT22): 1562.5; Minimum inhibitory concentration (MIC) ([1]; strain YT23): 1562.5; Minimum inhibitory concentration (MIC) ([1]; strain YT24): 1562.5; Minimum inhibitory concentration (MIC) ([1]; strain YT25): 6.103; Minimum inhibitory concentration (MIC) ([1]; strain YT26): 97.656; Minimum inhibitory concentration (MIC) ([1]; strain YT27): 97.656; Minimum inhibitory concentration (MIC) ([1]; strain YT28): 390.625; Minimum inhibitory concentration (MIC) ([1]; strain YT29): 390.625; Minimum inhibitory concentration (MIC) ([1]; strain YT30): 390.625; Minimum inhibitory concentration (MIC) [2]: 1.526
Gentamicin	2.441	156.25	156.25	9.765	625	156.25	625	625	156.25	625	2500	2500	2500	2500	2500	2500	2500	2.441	625	156.25	Minimum inhibitory concentration (MIC) ([1]; strain YT21): 2500; Minimum inhibitory concentration (MIC) ([1]; strain YT22): 2500; Minimum inhibitory concentration (MIC) ([1]; strain YT23): 156.25; Minimum inhibitory concentration (MIC) ([1]; strain YT24): 625; Minimum inhibitory concentration (MIC) ([1]; strain YT25): 2500; Minimum inhibitory concentration (MIC) ([1]; strain YT26): 2500; Minimum inhibitory concentration (MIC) ([1]; strain YT27): 625; Minimum inhibitory concentration (MIC) ([1]; strain YT28): 2500; Minimum inhibitory concentration (MIC) ([1]; strain YT29): 625; Minimum inhibitory concentration (MIC) ([1]; strain YT30): 39.0625; Minimum inhibitory concentration (MIC) [2]: 0.61

Reference: US11752120B2, “Use of succinic acid in increasing sensitivity of bacteria to antibiotics” (SUN YAT-SEN UNIVERSITY, priority 2018, dated 2023)
